Target: T1, Protein HGH1 homolog (HGH1) (Homo sapiens, UniProt Q9BTY7)
T1 construct: 1,522 proteins were enriched from MCF7 cells by 10 μM probe 24c; endogenous in cells; host or cells: MCF7
Assay: SILAC competitive profiling with probe 24c in MCF7 lysates: HGH1
Assay type: binding
Details: 1 h, then 10 µM 24c
Source text: In our efforts to determine the direct molecular targets of deoxyelephantopin we first performed a gel-based competitive in situ proteomic profiling assay[41] […] While the greater conformational flexibility of probe 24c could potentially lead to more promiscuous target engagement relatively to deoxyelephantopin, it was favoured based on the fact that an alkyne moiety appended to the rigid scaffold of deoxyelephantopin may hinder some of its interactions. MCF7 cells were pretreated with various concentrations of deoxyelephantopin for 4 h, harvested, lysed and the lysates were treated with the fluorogenic probe 24c-Cy3 (10 μM; Supplementary Fig. 10). […] Furthermore, cells were pretreated with 20 μM concentration of deoxyelephantopin or 24c and the proteomic profiles were compared (Fig. 6b, Supplementary Fig. 11). Multiple bands were detected that were equally competed by both DEP and 24c, thus again confirming that 24c can be used as an acceptable clickable analogue of deoxyelephantopin in pulldown assays. Having established the optimal labelling conditions by SDS–PAGE, we next carried out a mass spectrometry-based competitive profiling assay[42] coupled with the method of stable isotope labelling of amino acids in culture (SILAC)[43]. […]
visualization were performed as described above. Images were quantified with ImageJ and kinetics values were calculated using GraphPad Prism (V6.03). […]

T1 sequence (Q9BTY7 whole entry): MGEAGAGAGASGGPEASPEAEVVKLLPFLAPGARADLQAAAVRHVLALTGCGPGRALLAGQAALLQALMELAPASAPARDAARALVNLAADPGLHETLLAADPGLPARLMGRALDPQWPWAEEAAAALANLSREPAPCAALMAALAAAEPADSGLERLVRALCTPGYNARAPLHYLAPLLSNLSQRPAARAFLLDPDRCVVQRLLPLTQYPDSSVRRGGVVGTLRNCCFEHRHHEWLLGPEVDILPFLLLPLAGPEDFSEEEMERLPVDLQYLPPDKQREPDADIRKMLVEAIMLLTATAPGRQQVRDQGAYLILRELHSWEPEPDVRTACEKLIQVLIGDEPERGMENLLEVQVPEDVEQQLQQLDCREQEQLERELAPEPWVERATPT

## C=C(C)C(=O)O[C@H]1CC2=C[C@@H](C/C(C)=C/[C@H]3OC(=O)C(=C)[C@H]13)OC2=O [deoxyelephantopin]
  SILAC ratio 20 µM Deoxyelephantopin/DMSO with 24c: 0.20
